Measurements as given in EP0742015A1, “Prodrugs for beta-lactamase and uses thereof” (Bristol-Myers Squibb Company, priority 1990, dated 1992).

What was measured:
[1] = molecular target: β-lactamase from B. cereus (Bacillus cereus, UniProt P04190); experiment: Release of adriamycin from ADR-ceph in human plasma at 37°C, HPLC; type: biochemical; conditions: human plasma 37°C, ADR-ceph 572 µg/ml, β-lactamase 0.45 µg/ml
Method: The ability of the purified β-lactamase from B. cereus and the lactamase-L6 conjugate to catalyze the release of adriamycin from ADR-ceph was evaluated in human plasma at 37°C.
(§1) Stock solutions of the β-lactamase and lactamase-L6 conjugate were prepared in 0.05 M Hepes buffer (pH7). Aliquots of these stock solutions were added to solutions of ADR-ceph in human plasma thermostated at 37°C. The final concentration of ADR-ceph was 572 µg/ml in the β-lactamase experiment and 896 µg/ml in the L6-lactamase experiment; and the final concentrations of β-lactamase and L6-lactamase conjugate were 0.45 µg/ml and 5.4µg/ml, respectively. Aliquots were withdrawn periodically and were added to two volumes of cold methanol (4°C). The precipitated proteins were removed by centrifugation. The supernatants were analyzed by HPLC using a Waters Associates C18 Radial Pak cartridge (8x100 mm). The column was eluted at 2.0 mL/min with a mobile phase of 60% of 0.05 M ammonium phosphate (pH 6.5) containing 5% acetonitrile and 40% of a mixture of acetonitrile-water (80:20). The peaks were detected by uv at 254 nm. In these assays the respective retention times for adriamycin and ADR-ceph were 3.8 and 7.5 minutes.

[2] = molecular target: B. cereus β-lactamase (Bacillus cereus, UniProt P04190); type: biochemical; conditions: substrate 100 µg/ml, 0.05 M phosphate buffer, pH 7.0, 25°C
[3] = molecular target: L6-lactamase (B. cereus) conjugate (Bacillus cereus, UniProt P04190); type: biochemical; conditions: pH 7
[4] = molecular target: Sigma penicillinase from E. cloacae (Enterobacter cloacae, UniProt P05364); experiment: Specific activity of β-lactamases for cephalosporin substrates, spectrophotometric; type: biochemical; conditions: substrate 100 µg/ml, 0.05 M phosphate buffer, pH 7.0, 25°C
Method: The specific activities of selected β-lactamases for ADR-ceph were examined. These enzymes were B. cereus β-lactamase, lactamase-L6 conjugate, Sigma penicillinase from E. cloacae (Sigma Chemical) and P99 cephalosporinase from E. cloacae. All enzymes were diluted to give protein concentrations of 0.20 ± 0.01 mg/ml (with respect to β-lactamase). Assays were performed spectrophotometrically to 0.05 M phosphate buffer, pH 7.0, at 25°C. Cephaloridine was used as a reference substrate for the enzymes.
P99 cephalosporinase had the highest specific activity for both cephaloridine and ADR-ceph. […] The Sigma "penicillinase" had the lowest activity of all the preparations. […] The differences in activity is probably due to differences in purity between the two preparations.

[5] = molecular target: P99 cephalosporinase from E. cloacae (Enterobacter cloacae, UniProt P05364); type: biochemical; conditions: pH 7
[6] = Stability of ADR-ceph in rat plasma at 37°C, HPLC; type: in vitro ADME
Method: as §1
(§2) Using the same HPLC assay described in Example 2.2.2 the respective half lives at 37°C of ADR-ceph in rat plasma, buffer at pH 7.4, and human plasma are 8, 20 and ≧ 12 hours (Figure 9).

[7] = Stability of ADR-ceph in buffer at pH 7.4 at 37°C, HPLC; type: physicochemical; conditions: buffer at pH 7.4, 37°C
Method: as §1, §2

[8] = Stability of ADR-ceph in human plasma at 37°C, HPLC; type: in vitro ADME
Method: as §1, §2

[9] = molecular target: T1, B. cereus β-lactamase (II) (Bacillus cereus, UniProt P04190); type: biochemical
T1 sequence (P04190 31-257): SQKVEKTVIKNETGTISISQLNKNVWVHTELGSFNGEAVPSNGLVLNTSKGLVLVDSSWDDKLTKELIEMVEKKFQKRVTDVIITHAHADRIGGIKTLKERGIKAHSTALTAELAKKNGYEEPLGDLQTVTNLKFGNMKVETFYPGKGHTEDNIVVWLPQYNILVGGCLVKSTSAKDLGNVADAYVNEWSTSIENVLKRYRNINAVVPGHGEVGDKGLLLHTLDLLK

[10] = molecular target: T2, B. cereus β-lactamase (Bacillus cereus, UniProt P04190); type: biochemical; conditions: CM 50 µM in PBS at 37° C, 3 µg total protein/ml, partially purified enzyme
T2 construct: purchased Sigma Chem. Co
T2 sequence (P04190 31-257): T1 sequence (P04190 31-257)

[11] = test system: E. coli β-lactamase; experiment: Hydrolysis of CM by commercially available β-lactamase in PBS at 37° C, HPLC; type: biochemical; conditions: CM 50 µM in PBS at 37° C, 3 µg total protein/ml, partially purified enzyme
[12] = test system: human lung adenocarcinoma cell line, H2981
[13] = test system: Balb C nu/nu mice; conditions: mouse, in vivo, iv
[14] = in vitro; conditions: mouse, plasma
[15] = physchem; conditions: imdm cell growth medium
[16] = test system: H2981 lung cells; experiment: In vitro cytotoxicity of CM with L6-β-lactamase conjugate, 3H-thymidine incorporation; conditions: cells exposed to L6-β-lactamase conjugate 1 hr at 37° C, washed, then CM
[17] = molecular target: T3, BCP II (Bacillus cereus penicillinase) (Bacillus cereus, UniProt P04190); experiment: Conversion of the cephalosporin-mitomycin prodrug by BCP II in PBS, followed by TLC; type: biochemical; conditions: 0.3 mg compound in PBS (1 mL), BCP II 10 µL (4.1 mg/mL)
T3 sequence (P04190 31-257): T1 sequence (P04190 31-257)
Method: To a greyish blue solution of the title compound (0.3 mg) in PBS (1 mL) was added BCP II (Bacillus cereus penicillinase, 10 µL, protein concentration = 4.1 mg/mL). Immediately the color changed to blue.

Chain of P99 cephalosporinase from E. cloacae (P05364 21-381): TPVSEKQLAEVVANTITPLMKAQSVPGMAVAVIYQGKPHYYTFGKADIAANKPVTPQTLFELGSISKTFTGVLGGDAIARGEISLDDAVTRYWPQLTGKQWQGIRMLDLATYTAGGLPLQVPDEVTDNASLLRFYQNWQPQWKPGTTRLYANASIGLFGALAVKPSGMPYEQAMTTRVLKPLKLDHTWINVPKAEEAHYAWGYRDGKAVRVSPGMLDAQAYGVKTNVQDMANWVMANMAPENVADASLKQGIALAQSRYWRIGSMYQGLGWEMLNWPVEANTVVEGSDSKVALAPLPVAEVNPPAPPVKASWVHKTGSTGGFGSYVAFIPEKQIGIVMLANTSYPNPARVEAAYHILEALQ
Chain of Sigma penicillinase from E. cloacae (P05364 21-381): as above

SMILES: COc1cccc2c1C(=O)c1c(O)c3c(c(O)c1C2=O)C[C@@](O)(C(=O)CO)C[C@@H]3O[C@H]1C[C@H](NC(=O)OCC2=C(C(=O)O)N3C(=O)C(NC(=O)Cc4ccccc4)C3SC2)[C@H](O)[C@H](C)O1 (some centres unmarked) [ADR-ceph, 3-[[(N-adriamycinyl)carbonyloxy]methyl]-7-phenylacetamido-8-oxo-5-thia-1-azabicyclo[4.2.0]oct-2-ene-2-carboxylic acid]
- hydrolysis of ADR-ceph, release of adriamycin [1]: efficiently hydrolyzed
- Hydrolysis, µmoles/min/µg protein [2]: 0.016 µmoles/min/µg protein
- Hydrolysis, µmoles/min/µg protein [3]: 0.021 µmoles/min/µg protein
- Hydrolysis, µmoles/min/µg protein [4]: 0.0030 µmoles/min/µg protein
- Hydrolysis, µmoles/min/µg protein [5]: 0.060 µmoles/min/µg protein
- half-life [6]: 8 h
- half-life [7]: 20 h
- half-life [8]: ≥ 12 h

SMILES: O=C(Cc1ccccc1)NC1C(=O)N2C(C(=O)O)=C(COC(=O)Nc3ccc(N(CCCl)CCCl)cc3)CSC12 (centres unmarked) [CM]
- Km ([9]; CM as substrate): 25 µM
- Vmax ([9]; CM as substrate): 250 µmol/min/mg
- hydrolysis of CM, release of PDM [10]: able to hydrolyze CM to release the nitrogen mustard, PDM
- hydrolysis of CM, release of PDM [11]: able to hydrolyze CM to release the nitrogen mustard, PDM
- IC50 [12]: ~100 µM
- cytotoxic activity of CM with purified B. cereus β-lactamase (II) [12]: enhanced the cytotoxic activity of CM to the level observed for PDM
- enhancement of the activity of CM by β-lactamases [12]: 50-100 fold
- difference in toxicity on a molar basis, CM versus PDM [13]: > 11 fold
- dose up to which no toxicity was observed [13]: ≥ 900 µg/injection
- metabolised at 2.5 h, 500 µM [14]: 12%
- half-life at 500 µM [15]: 0.5 h
- cytotoxic effect of CM with the antibody-β-lactamase conjugate [16]: enhanced cytotoxic effect

SMILES: O=C(Cc1cccs1)N[C@@H]1C(=O)N2C(C(=O)[O-])=C(C[n+]3ccccc3)CS[C@H]12 [Cephaloridine, reference compound]
- Hydrolysis, µmoles/min/µg protein [2]: 0.038 µmoles/min/µg protein
- Hydrolysis, µmoles/min/µg protein [3]: 0.045 µmoles/min/µg protein
- Hydrolysis, µmoles/min/µg protein [4]: 0.026 µmoles/min/µg protein
- Hydrolysis, µmoles/min/µg protein [5]: 0.30 µmoles/min/µg protein

SMILES: O=C(O)CN(CCN(CC(=O)O)CC(=O)O)CC(=O)O [EDTA, reference compound]
- inhibition of the enzyme activity [9]: completely inhibited

SMILES: COC12C(COC(N)=O)C3=C(C(=O)C(C)=C(NCC4=C(C(=O)O)N5C(=O)C(NC(=O)Cc6ccccc6)C5SC4)C3=O)N1CC1NC12 (centres unmarked) [Example 1.2.5, 7-Phenylacetamido-3-(N^7-mitomycin C)-8-oxo-5-thia-1-azabicyclo[4.2.0]oct-2-ene-2-carboxylic acid]
- conversion to mitomycin C [17]: complete conversion to mitomycin C
